Values of other authors as cited in patent publication US7109337B2, “Pyrimidine derivatives for the treatment of abnormal cell growth” (Pfizer Inc, priority 2002, dated 2006).

Experiments:
[1] = system: transplanted human mammary carcinoma that expresses epidermal growth factor receptor tyrosine kinase (EGFR); details: athymic nude mice
[2] = system: another carcinoma that does not express the EGF receptor

## O=CN/C=C/c1cc(O)ccc1O [erbstatin]
[1]
  growth of transplanted human mammary carcinoma: selectively attenuates the growth
[2]
  growth of another carcinoma: without effect on the growth
